Each structure is given as a SMILES string. Values after ≈ are worked out from the molar mass of the structure shown. A value given as a limit tells only on which side of the number the result lay.

The test system of one assay is Pseudomonas aeruginosa. Description: Antimicrobial activity against ampicillin- and ticarcillin-resistant Pseudomonas aeruginosa FE60 mutant transformed with pAGH97 carrying mexXY F1018L mutant by twofold macrodilution method. Format: functional.
Conditions: not given
Turning to `O=C(O)c1cn(C2CC2)c2cc(N3CCNCC3)c(F)cc2c1=O` [CIPROFLOXACIN], the MIC stood at 1 mg/L (≈ 3.02 µM).

Another assay relates to Pseudomonas aeruginosa. Description: Antimicrobial activity against Pseudomonas aeruginosa isolate 2933 obtained from cystic fibrosis patient by disk diffusion method. It is filed as functional.
Conditions: not given
A general note: A growth-free zone around the sample is the usual read-out of agar diffusion tests.
On to `C[C@H]1[C@H](NC(=O)/C(=N\OC(C)(C)C(=O)O)c2csc(N)n2)C(=O)N1S(=O)(=O)O` [AZTREONAM], for which the MIC came out at 0.25 mg/L (≈ 0.574 µM).
The same measure, in the same setting: the same measure for `CC(C)(O/N=C(\C(=O)N[C@@H]1C(=O)N2C(C(=O)[O-])=C(C[n+]3ccccc3)CS[C@H]12)c1csc(N)n1)C(=O)O` [CEFTAZIDIME]: 0.5 mg/L (≈ 0.915 µM).

For another assay, the system named is Pseudomonas aeruginosa. Description: Antimicrobial activity against Pseudomonas aeruginosa isolate 2858 obtained from cystic fibrosis patient by disk diffusion method. It is filed as functional.
Conditions: not given
The compound `C[C@H]1[C@H](NC(=O)/C(=N\OC(C)(C)C(=O)O)c2csc(N)n2)C(=O)N1S(=O)(=O)O` [AZTREONAM] yielded an MIC of 0.25 mg/L (≈ 0.574 µM).
Same read-out and setting: to `CC(C)(O/N=C(\C(=O)N[C@@H]1C(=O)N2C(C(=O)[O-])=C(C[n+]3ccccc3)CS[C@H]12)c1csc(N)n1)C(=O)O` [CEFTAZIDIME] belongs 4 mg/L (≈ 7.32 µM).

In another assay the test system is Pseudomonas aeruginosa. Description: Antimicrobial activity against Pseudomonas aeruginosa isolate 2998 expressing inactivated mexB gene by disk diffusion method. It is filed as functional.
Conditions: not given
Regarding `C[C@H]1[C@H](NC(=O)/C(=N\OC(C)(C)C(=O)O)c2csc(N)n2)C(=O)N1S(=O)(=O)O` [AZTREONAM], the MIC stood at 0.12 mg/L (≈ 0.276 µM).

The test system of another assay is Pseudomonas aeruginosa. Put plainly: Antimicrobial activity against Pseudomonas aeruginosa isolate 2729 obtained from cystic fibrosis patient by disk diffusion method. Format: functional.
Conditions: not given
On to `C[C@H]1[C@H](NC(=O)/C(=N\OC(C)(C)C(=O)O)c2csc(N)n2)C(=O)N1S(=O)(=O)O` [AZTREONAM], for which the MIC is 0.25 mg/L (≈ 0.574 µM).
On the same count and under the same terms, the same measure for `O=C(O)c1cn(C2CC2)c2cc(N3CCNCC3)c(F)cc2c1=O` [CIPROFLOXACIN]: 1 mg/L (≈ 3.02 µM).

For a further assay, the system named is Pseudomonas aeruginosa. Description: Antimicrobial activity against mexXY operon inactivated Pseudomonas aeruginosa PAO1 by twofold macrodilution method. Format: functional.
Conditions: not given
The compound `C[C@H]1[C@H](NC(=O)/C(=N\OC(C)(C)C(=O)O)c2csc(N)n2)C(=O)N1S(=O)(=O)O` [AZTREONAM] gave an MIC of 0.12 mg/L (≈ 0.276 µM).

The next assay concerns Pseudomonas aeruginosa. Description: Antimicrobial activity against Pseudomonas aeruginosa isolate 2721 expressing inactivated mexB gene by disk diffusion method. It is filed as functional.
Conditions: not given
In turn, `C[C@H]1[C@H](NC(=O)/C(=N\OC(C)(C)C(=O)O)c2csc(N)n2)C(=O)N1S(=O)(=O)O` [AZTREONAM] yielded an MIC of 0.12 mg/L (≈ 0.276 µM).

The next assay has as its system Pseudomonas aeruginosa. Description: microbe, parasite or virus in culture. Particulars: isolate 3020R.
Description: Antimicrobial activity against Pseudomonas aeruginosa isolate 3020R expressing inactivated mexB gene by disk diffusion method
The compound `C[C@H]1[C@H](NC(=O)/C(=N\OC(C)(C)C(=O)O)c2csc(N)n2)C(=O)N1S(=O)(=O)O` [AZTREONAM] had an MIC of 0.25 mg/L (≈ 0.574 µM).

The next assay deals with Pseudomonas aeruginosa. Description: Antimicrobial activity against Pseudomonas aeruginosa isolate 2804 obtained from cystic fibrosis patient by disk diffusion method. It is filed as functional.
Conditions: not given
With `C[C@H]1[C@H](NC(=O)/C(=N\OC(C)(C)C(=O)O)c2csc(N)n2)C(=O)N1S(=O)(=O)O` [AZTREONAM], the MIC turned out to be 0.25 mg/L (≈ 0.574 µM).
As for `CC(C)(O/N=C(\C(=O)N[C@@H]1C(=O)N2C(C(=O)[O-])=C(C[n+]3ccccc3)CS[C@H]12)c1csc(N)n1)C(=O)O` [CEFTAZIDIME], the MIC was 2 mg/L (≈ 3.66 µM).
`O=C(O)c1cn(C2CC2)c2cc(N3CCNCC3)c(F)cc2c1=O` [CIPROFLOXACIN]: the MIC worked out at 16 mg/L (≈ 48.3 µM).

The next assay has as its system Pseudomonas aeruginosa. Put plainly: microbe, parasite or virus in culture. To be noted: isolate 3066.
Description: Antimicrobial activity against Pseudomonas aeruginosa isolate 3066 expressing inactivated mexB gene by disk diffusion method
In the case of `C[C@H]1[C@H](NC(=O)/C(=N\OC(C)(C)C(=O)O)c2csc(N)n2)C(=O)N1S(=O)(=O)O` [AZTREONAM], the MIC stood at 0.25 mg/L (≈ 0.574 µM).

The subject of the next assay is Pseudomonas aeruginosa. Description: Antimicrobial activity against Pseudomonas aeruginosa isolate 2721 obtained from cystic fibrosis patient by agar dilution method.
Conditions: not given
For orientation: In agar dilution, organisms are placed on agar that contains the substance at set levels.
`C[C@H]1[C@H](NC(=O)/C(=N\OC(C)(C)C(=O)O)c2csc(N)n2)C(=O)N1S(=O)(=O)O` [AZTREONAM] had an MIC of 0.25 mg/L (≈ 0.574 µM).
As to `CC(C)(O/N=C(\C(=O)N[C@@H]1C(=O)N2C(C(=O)[O-])=C(C[n+]3ccccc3)CS[C@H]12)c1csc(N)n1)C(=O)O` [CEFTAZIDIME], the MIC amounted to 0.5 mg/L (≈ 0.915 µM).
Still for that read-out and setting: the same measure for `O=C(O)c1cn(C2CC2)c2cc(N3CCNCC3)c(F)cc2c1=O` [CIPROFLOXACIN]: 1 mg/L (≈ 3.02 µM).

The test system of another assay is Pseudomonas aeruginosa. Put plainly: Antimicrobial activity against Pseudomonas aeruginosa isolate 2715 obtained from cystic fibrosis patient by agar dilution method.
Conditions: not given
Consider `C[C@H]1[C@H](NC(=O)/C(=N\OC(C)(C)C(=O)O)c2csc(N)n2)C(=O)N1S(=O)(=O)O` [AZTREONAM], for which the MIC came out at 0.5 mg/L (≈ 1.15 µM).
Same read-out and setting: to `O=C(O)c1cn(C2CC2)c2cc(N3CCNCC3)c(F)cc2c1=O` [CIPROFLOXACIN] belongs 1 mg/L (≈ 3.02 µM).

The next assay has as its system Pseudomonas aeruginosa. Put plainly: microbe, parasite or virus in culture. Particulars: isolate 2729.
Description: Antimicrobial activity against Pseudomonas aeruginosa isolate 2729 expressing inactivated mexB gene by disk diffusion method
For `C[C@H]1[C@H](NC(=O)/C(=N\OC(C)(C)C(=O)O)c2csc(N)n2)C(=O)N1S(=O)(=O)O` [AZTREONAM], the MIC was found to be 0.25 mg/L (≈ 0.574 µM).

Another assay concerns Pseudomonas aeruginosa. Description: Antimicrobial activity against Pseudomonas aeruginosa isolate 2933 expressing inactivated mexB gene by disk diffusion method. Format: functional.
Conditions: not given
With `C[C@H]1[C@H](NC(=O)/C(=N\OC(C)(C)C(=O)O)c2csc(N)n2)C(=O)N1S(=O)(=O)O` [AZTREONAM], the MIC was 0.12 mg/L (≈ 0.276 µM).

In a further assay the test system is Pseudomonas aeruginosa. Put plainly: Antimicrobial activity against Pseudomonas aeruginosa isolate 2716 obtained from cystic fibrosis patient by agar dilution method.
Conditions: not given
In turn, `C[C@H]1[C@H](NC(=O)/C(=N\OC(C)(C)C(=O)O)c2csc(N)n2)C(=O)N1S(=O)(=O)O` [AZTREONAM] yielded an MIC of 0.25 mg/L (≈ 0.574 µM).

In another assay the test system is Pseudomonas aeruginosa. Put plainly: Antimicrobial activity against Pseudomonas aeruginosa isolate 3066 obtained from cystic fibrosis patient by disk diffusion method. It is filed as functional.
Conditions: not given
As to `C[C@H]1[C@H](NC(=O)/C(=N\OC(C)(C)C(=O)O)c2csc(N)n2)C(=O)N1S(=O)(=O)O` [AZTREONAM], the MIC is 0.25 mg/L (≈ 0.574 µM).
Compound `CC(C)(O/N=C(\C(=O)N[C@@H]1C(=O)N2C(C(=O)[O-])=C(C[n+]3ccccc3)CS[C@H]12)c1csc(N)n1)C(=O)O` [CEFTAZIDIME] came in with an MIC of over 8 mg/L.
In the case of `O=C(O)c1cn(C2CC2)c2cc(N3CCNCC3)c(F)cc2c1=O` [CIPROFLOXACIN], the MIC turned out to be 16 mg/L (≈ 48.3 µM).

Another assay has as its system Pseudomonas aeruginosa. Description: Antimicrobial activity against Pseudomonas aeruginosa isolate 615R obtained from cystic fibrosis patient by disk diffusion method.
Conditions: not given
Format: functional.
The compound `C[C@H]1[C@H](NC(=O)/C(=N\OC(C)(C)C(=O)O)c2csc(N)n2)C(=O)N1S(=O)(=O)O` [AZTREONAM] yielded an MIC of 0.25 mg/L (≈ 0.574 µM).
The same measure, in the same setting: the same measure for `O=C(O)c1cn(C2CC2)c2cc(N3CCNCC3)c(F)cc2c1=O` [CIPROFLOXACIN]: 1 mg/L (≈ 3.02 µM).

The subject of the next assay is Pseudomonas aeruginosa. Description: Antimicrobial activity against Pseudomonas aeruginosa isolate 3020R obtained from cystic fibrosis patient by agar dilution method.
Conditions: not given
Take `C[C@H]1[C@H](NC(=O)/C(=N\OC(C)(C)C(=O)O)c2csc(N)n2)C(=O)N1S(=O)(=O)O` [AZTREONAM]: the MIC stood at 0.25 mg/L (≈ 0.574 µM).

In another assay the test system is Pseudomonas aeruginosa. Put plainly: microbe, parasite or virus in culture. To be noted: isolate 2716.
Description: Antimicrobial activity against Pseudomonas aeruginosa isolate 2716 expressing inactivated mexB gene by disk diffusion method
On to `C[C@H]1[C@H](NC(=O)/C(=N\OC(C)(C)C(=O)O)c2csc(N)n2)C(=O)N1S(=O)(=O)O` [AZTREONAM], for which the MIC turned out to be 0.25 mg/L (≈ 0.574 µM).

The subject of another assay is Pseudomonas aeruginosa. Put plainly: microbe, parasite or virus in culture. To be noted: isolate 3020S.
Description: Antimicrobial activity against Pseudomonas aeruginosa isolate 3020S expressing inactivated mexB gene by disk diffusion method
In the case of `C[C@H]1[C@H](NC(=O)/C(=N\OC(C)(C)C(=O)O)c2csc(N)n2)C(=O)N1S(=O)(=O)O` [AZTREONAM], the MIC was determined as 0.25 mg/L (≈ 0.574 µM).

The test system of a further assay is Pseudomonas aeruginosa. Description: Antimicrobial activity against Pseudomonas aeruginosa isolate 615S obtained from cystic fibrosis patient by disk diffusion method. It is filed as functional.
Conditions: not given
In the case of `C[C@H]1[C@H](NC(=O)/C(=N\OC(C)(C)C(=O)O)c2csc(N)n2)C(=O)N1S(=O)(=O)O` [AZTREONAM], the MIC is 0.12 mg/L (≈ 0.276 µM).
Same read-out and setting: the same measure for `O=C(O)c1cn(C2CC2)c2cc(N3CCNCC3)c(F)cc2c1=O` [CIPROFLOXACIN]: 4 mg/L (≈ 12.1 µM).

A further assay deals with Pseudomonas aeruginosa. Put plainly: microbe, parasite or virus in culture. To be noted: isolate 2715.
Description: Antimicrobial activity against Pseudomonas aeruginosa isolate 2715 expressing inactivated mexB gene by disk diffusion method
The compound `C[C@H]1[C@H](NC(=O)/C(=N\OC(C)(C)C(=O)O)c2csc(N)n2)C(=O)N1S(=O)(=O)O` [AZTREONAM] gave an MIC of 0.25 mg/L (≈ 0.574 µM).

A further assay deals with Pseudomonas aeruginosa. Description: Antimicrobial activity against Pseudomonas aeruginosa isolate 2998 obtained from cystic fibrosis patient by agar dilution method.
Conditions: not given
`C[C@H]1[C@H](NC(=O)/C(=N\OC(C)(C)C(=O)O)c2csc(N)n2)C(=O)N1S(=O)(=O)O` [AZTREONAM] gave an MIC of 0.12 mg/L (≈ 0.276 µM).
Still for that read-out and setting: to `CC(C)(O/N=C(\C(=O)N[C@@H]1C(=O)N2C(C(=O)[O-])=C(C[n+]3ccccc3)CS[C@H]12)c1csc(N)n1)C(=O)O` [CEFTAZIDIME] belongs 0.5 mg/L (≈ 0.915 µM).
With `O=C(O)c1cn(C2CC2)c2cc(N3CCNCC3)c(F)cc2c1=O` [CIPROFLOXACIN], the MIC was 1 mg/L (≈ 3.02 µM).

The subject of a further assay is Pseudomonas aeruginosa. Put plainly: microbe, parasite or virus in culture. Particulars: isolate 615R.
Description: Antimicrobial activity against Pseudomonas aeruginosa isolate 615R expressing inactivated mexB gene by disk diffusion method
For `C[C@H]1[C@H](NC(=O)/C(=N\OC(C)(C)C(=O)O)c2csc(N)n2)C(=O)N1S(=O)(=O)O` [AZTREONAM], the MIC amounted to 0.25 mg/L (≈ 0.574 µM).

The values are drawn from ChEMBL document CHEMBL1649198, “Efflux unbalance in Pseudomonas aeruginosa isolates from cystic fibrosis patients” (2009).
